# Reference: patent US20260070945A1, “MACROCYCLIC IMMUNOMODULATORS” (Bristol-Myers Squibb Company, priority 2022, published 2026)
# *1 amine or outer side, *2 acyl side, *3 side chain or, on linkers, in order; H or OH if unused. Where a SMILES comes first, the peptide text is derived from it. Bridges are numbered along the chain shown (N, C = ends). [ ]: non-standard residue; d: D form. The star is where a group is joined. ξ: configuration not given here. Phe(3-CF3) = N[C@@H](Cc1cccc(C(F)(F)F)c1)C(=O)O; Ala(morpholin-4-yl) = N[C@@H](CN1CCOCC1)C(=O)O; Phe(4-CONH2) = NC(=O)c1ccc(C[C@H](N)C(=O)O)cc1; Phe(4-COOH) = N[C@@H](Cc1ccc(C(=O)O)cc1)C(=O)O; Bip = N[C@@H](Cc1ccc(-c2ccccc2)cc1)C(=O)O; Morpholine(3S-CO) = O=C(O)[C@@H]1COCCN1; NH(CH2)14COOH = O=C(O)CCCCCCCCCCCCCCN*; Phe(3-Me) = Cc1cccc(C[C@H](N)C(=O)O)c1; γGlu = O=C(O)[C@H](CCC(=O)[*:2])N[*:1]; NH(CH2)12COOH = O=C(O)CCCCCCCCCCCCN*; Phe(2-Me) = Cc1ccccc1C[C@H](N)C(=O)O; Val(3-OH) = CC(C)(O)[C@H](N)C(=O)O; 4Pal = N[C@@H](Cc1ccncc1)C(=O)O; Cha = N[C@@H](CC1CCCCC1)C(=O)O; Cit = NC(=O)NCCC[C@H](N)C(=O)O; Ile(3ξ) = CCC(C)[C@H](N)C(=O)O; Thr(3ξ) = CC(O)[C@H](N)C(=O)O; hSer = N[C@@H](CCO)C(=O)O; Carboxymethyl = O=C(O)C*; NMeA = CN[C@@H](C)C(=O)O; Orn = NCCC[C@H](N)C(=O)O; Aun = NCCCCCCCCCCC(=O)O; Dab = NCC[C@H](N)C(=O)O; AEEA = NCCOCCOCC(=O)O
# Molecular target: T1, PD-1/PD-L1 interaction (PE-labeled human PD-L1-Ig binding to Jurkat cell line over-expressing human PD-1) (Homo sapiens, UniProt Q15116)
# T1 construct: expressed in transfected cells; host or cells: Jurkat
# T1 sequence (Q15116 25-288): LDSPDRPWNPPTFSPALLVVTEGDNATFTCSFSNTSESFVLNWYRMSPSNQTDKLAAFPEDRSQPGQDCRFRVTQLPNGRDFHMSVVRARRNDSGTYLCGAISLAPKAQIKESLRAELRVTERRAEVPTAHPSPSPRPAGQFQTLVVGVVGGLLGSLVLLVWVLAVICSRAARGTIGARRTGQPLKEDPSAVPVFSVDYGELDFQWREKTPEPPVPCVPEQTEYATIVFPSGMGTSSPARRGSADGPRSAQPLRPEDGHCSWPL
# Experiment: Jurkat-PD-1 Cell Binding High-Content Screening Assay (CBA)
# Settings: Jurkat-hPD-1 cells, PE-labeled PD-L1-Ig 20 nM final; read-out: Jurkat HPD1 PDL1 IC50
# Procedure, shortened: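 Binding of 20 nM (final) PE-tagged PD-L1-Ig to compound-pretreated Jurkat-hPD-1 cells was measured by high-content imaging after 1 h. Pretreatment ran 2 h at 37 °C in DMEM with 10% fetal calf serum.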
row,Compound,IC50 [nM]
1,Cc1cccc(C[C@@H]2NC(=O)[C@H](CC(=O)O)NC(=O)[C@H](Cc3ccc(C(N)=O)cc3)NC(=O)[C@H](C(C)O)NC(=O)CSC[C@@H](C(=O)N[C@@H](CCN)C(=O)NCCOCCOCC(=O)NCCCCCCCCCCC(=O)O)NC(=O)[C@H](CCC(=O)O)NC(=O)[C@H](C(C)C)NC(=O)[C@H](CC3CCCCC3)NC(=O)[C@H](CCN)NC(=O)[C@@H](CC(C)C)NC(=O)[C@H](C)N(C)C(=O)[C@H](Cc3ccc(OCC(=O)O)cc3)NC(=O)[C@H](Cc3ccc(-c4ccccc4)cc3)NC(=O)[C@H](Cc3ccc(C(=O)O)cc3)NC2=O)c1 (stereo partly drawn) [Example 2480] ({CH2CO}-[Thr(3ξ)][Phe(4-CONH2)]D[Phe(3-Me)][Phe(4-COOH)][Bip]Y(Carboxymethyl)[NMeA][dL][Dab][Cha]VEC[Dab][AEEA][Aun]-OH; thioether N-14),17.4
2,CC(C)C[C@@H]1NC(=O)[C@H](Cc2c[nH]c3ccccc23)NC(=O)[C@H](CC(=O)O)NC(=O)[C@H](Cc2ccncc2)NC(=O)[C@H](Cc2ccc(OCC(=O)O)cc2)NC(=O)CSC[C@@H](C(=O)N2CCOC[C@H]2C(=O)NCCCCCCCCCCC(=O)O)NC(=O)[C@H](C(C)O)NC(=O)[C@H](C(C)C)NC(=O)[C@H](CC2CCCCC2)NC(=O)[C@H](CCN)NC(=O)[C@@H](CC(C)C)NC(=O)[C@H](C)N(C)C(=O)[C@H](C(C)C)NC(=O)[C@H](Cc2ccc(-c3ccccc3)cc2)NC1=O (stereo partly drawn) [Example 1222] ({CH2CO}-Y(Carboxymethyl)[4Pal]DWL[Bip]V[NMeA][dL][Dab][Cha]V[Thr(3ξ)]C[Morpholine(3S-CO)][Aun]-OH; thioether N-14),591
3,CC(C)C[C@@H]1NC(=O)[C@H](Cc2c[nH]c3ccccc23)NC(=O)[C@H](CC(=O)O)NC(=O)[C@H](Cc2ccc(OCC(=O)O)cc2)NC(=O)[C@H](Cc2ccc(OCC(=O)O)cc2)NC(=O)CSC[C@@H](C(=O)NCCOCCOCC(=O)NCCCCCCCCCCC(=O)O)NC(=O)[C@H](CO)NC(=O)[C@H](C(C)(C)O)NC(=O)[C@H](CC2CCCCC2)NC(=O)[C@H](CC(N)=O)NC(=O)[C@@H](CC(C)C)NC(=O)[C@H](C)N(C)C(=O)[C@H](C(C)C)NC(=O)[C@H](Cc2ccc(-c3ccccc3)cc2)NC1=O [Example 2446] ({CH2CO}-Y(Carboxymethyl)Y(Carboxymethyl)DWL[Bip]V[NMeA][dL]N[Cha][Val(3-OH)]SC[AEEA][Aun]-OH; thioether N-14),239
4,Cc1cccc(C[C@@H]2NC(=O)[C@H](CC(=O)O)NC(=O)[C@H](Cc3ccc(C(=O)O)cc3)NC(=O)[C@H](CCN)NC(=O)CSC[C@@H](C(=O)N[C@@H](CCN)C(=O)NCCCCCCCCCCC(=O)O)NC(=O)[C@H](CO)NC(=O)[C@H](C(C)(C)O)NC(=O)[C@H](CC3CCCCC3)NC(=O)[C@H](CCN)NC(=O)[C@@H](CC(C)C)NC(=O)[C@H](C)N(C)C(=O)[C@H](Cc3ccc(OCC(=O)O)cc3)NC(=O)[C@H](Cc3ccc(-c4ccccc4)cc3)NC(=O)[C@H](Cc3ccccc3C)NC2=O)c1 [Example 1296] ({CH2CO}-[Dab][Phe(4-COOH)]D[Phe(3-Me)][Phe(2-Me)][Bip]Y(Carboxymethyl)[NMeA][dL][Dab][Cha][Val(3-OH)]SC[Dab][Aun]-OH; thioether N-14),48.7
5,Cc1cccc(C[C@@H]2NC(=O)[C@H](CC(=O)O)NC(=O)[C@H](Cc3ccc(OCC(=O)O)cc3)NC(=O)[C@H](C(C)O)NC(=O)CSC[C@@H](C(=O)N[C@H](CC(N)=O)C(=O)NCCCCCCCCCCC(=O)O)NC(=O)[C@H](CCCN)NC(=O)[C@H](C(C)C)NC(=O)[C@H](CC3CCCCC3)NC(=O)[C@H](CCN)NC(=O)[C@@H](CC(C)C)NC(=O)[C@H](C)N(C)C(=O)[C@H](Cc3ccc(O)cc3)NC(=O)[C@H](Cc3ccc(-c4ccccc4)cc3)NC(=O)[C@H](C(C)C)NC2=O)c1 (stereo partly drawn) [Example 2241] ({CH2CO}-[Thr(3ξ)]Y(Carboxymethyl)D[Phe(3-Me)]V[Bip]Y[NMeA][dL][Dab][Cha]V[Orn]C[dN][Aun]-OH; thioether N-14),10.2
6,CC(C)C[C@H]1NC(=O)[C@H](C)N(C)C(=O)[C@H](CCCNC(N)=O)NC(=O)[C@H](Cc2ccc(-c3ccccc3)cc2)NC(=O)[C@H](Cc2ccc(C(=O)O)cc2)NC(=O)[C@H](Cc2cccc(C(F)(F)F)c2)NC(=O)[C@H](CC(=O)O)NC(=O)[C@H](Cc2ccc(OCC(=O)O)cc2)NC(=O)[C@H](CN2CCOCC2)NC(=O)CSC[C@@H](C(=O)N[C@@H](CCN)C(=O)NCCOCCOCC(=O)N[C@@H](CCC(=O)NCCOCCOCC(=O)NCCCCCCCCCCCCC(=O)O)C(=O)O)NC(=O)[C@H](CO)NC(=O)[C@H](C(C)(C)O)NC(=O)[C@H](CC2CCCCC2)NC(=O)[C@H](CCN)NC1=O [Example 1177] ({CH2CO}-[Ala(morpholin-4-yl)]Y(Carboxymethyl)D[Phe(3-CF3)][Phe(4-COOH)][Bip][Cit][NMeA][dL][Dab][Cha][Val(3-OH)]SC[Dab][AEEA][γGlu][AEEA]-{NH(CH2)12COOH}; thioether N-14),27
7,CC(C)C[C@@H]1NC(=O)[C@H](Cc2c[nH]c3ccccc23)NC(=O)[C@H](CC(=O)O)NC(=O)[C@H](Cc2ccc(C(=O)O)cc2)NC(=O)[C@H](Cc2ccc(OCC(=O)O)cc2)NC(=O)CSC[C@@H](C(=O)NCCOCCOCC(=O)NCCCCCCCCCCC(=O)O)NC(=O)[C@H](CCO)NC(=O)[C@H](C(C)C)NC(=O)[C@H](CC2CCCCC2)NC(=O)[C@H](CCN)NC(=O)[C@@H](CC(C)C)NC(=O)[C@H](C)N(C)C(=O)[C@H](CCC(N)=O)NC(=O)[C@H](Cc2ccc(-c3ccccc3)cc2)NC1=O [Example 2227] ({CH2CO}-Y(Carboxymethyl)[Phe(4-COOH)]DWL[Bip]Q[NMeA][dL][Dab][Cha]V[hSer]C[AEEA][Aun]-OH; thioether N-14),34
8,Cc1cccc(C[C@@H]2NC(=O)[C@H](CC(=O)O)NC(=O)[C@H](Cc3ccc(OCC(=O)O)cc3)NC(=O)[C@H](C(C)O)NC(=O)CSC[C@@H](C(=O)N[C@H](CC(N)=O)C(=O)NCCCCCCCCCCC(=O)O)NC(=O)[C@H](C(C)C)NC(=O)[C@H](C(C)C)NC(=O)[C@H](CC3CCCCC3)NC(=O)[C@H](CCN)NC(=O)[C@@H](CC(C)C)NC(=O)[C@H](C)N(C)C(=O)[C@H](Cc3ccc(OCC(=O)O)cc3)NC(=O)[C@H](Cc3ccc(-c4ccccc4)cc3)NC(=O)[C@H](Cc3ccc(OCC(=O)O)cc3)NC2=O)c1 (stereo partly drawn) [Example 2361] ({CH2CO}-[Thr(3ξ)]Y(Carboxymethyl)D[Phe(3-Me)]Y(Carboxymethyl)[Bip]Y(Carboxymethyl)[NMeA][dL][Dab][Cha]VVC[dN][Aun]-OH; thioether N-14),18.3
9,Cc1cccc(C[C@@H]2NC(=O)[C@H](CC(=O)O)NC(=O)[C@H](Cc3ccc(OCC(=O)O)cc3)NC(=O)[C@H](C(C)O)NC(=O)CSC[C@@H](C(=O)N[C@@H](CCN)C(=O)NCCCCCCCCCCC(=O)O)NC(=O)[C@H](C(C)O)NC(=O)[C@H](C(C)C)NC(=O)[C@H](CC3CCCCC3)NC(=O)[C@H](CCN)NC(=O)[C@@H](CC(C)C)NC(=O)[C@H](C)N(C)C(=O)[C@H](CCCNC(N)=O)NC(=O)[C@H](Cc3ccc(-c4ccccc4)cc3)NC(=O)[C@H](C(C)C)NC2=O)c1 (stereo partly drawn) [Example 2336] ({CH2CO}-[Thr(3ξ)]Y(Carboxymethyl)D[Phe(3-Me)]V[Bip][Cit][NMeA][dL][Dab][Cha]V[Thr(3ξ)]C[Dab][Aun]-OH; thioether N-14),6.7

# Same assay, conditions: PE-labeled PD-L1-Ig 20 nM final, Jurkat-hPD-1 cells; read-out: Jurkat HPD1 PDL1 IC50
row,Compound,IC50 [nM]
1,CC(C)C[C@H]1NC(=O)[C@H](C)N(C)C(=O)[C@H](CCC(N)=O)NC(=O)[C@H](Cc2ccc(-c3ccccc3)cc2)NC(=O)[C@H](Cc2ccc(OCC(=O)O)cc2)NC(=O)[C@H](Cc2cccc(C(F)(F)F)c2)NC(=O)[C@H](CC(=O)O)NC(=O)[C@H](Cc2ccc(OCC(=O)O)cc2)NC(=O)[C@H](Cc2ccc(OCC(=O)O)cc2)NC(=O)CSC[C@@H](C(=O)N[C@@H](CCN)C(=O)NCCOCCOCC(=O)NCCOCCOCC(=O)N[C@H](CCC(=O)NCCCCCCCCCCCCCCC(=O)O)C(=O)O)NC(=O)[C@H](Cc2cnc[nH]2)NC(=O)[C@H](C(C)(C)O)NC(=O)[C@H](CC2CCCCC2)NC(=O)[C@H](CCN)NC1=O [Example 2627] ({CH2CO}-Y(Carboxymethyl)Y(Carboxymethyl)D[Phe(3-CF3)]Y(Carboxymethyl)[Bip]Q[NMeA][dL][Dab][Cha][Val(3-OH)]HC[Dab][AEEA][AEEA][dE](NH(CH2)14COOH)-OH; thioether N-14),164
2,CCC(C)[C@@H]1NC(=O)[C@H](Cc2ccc(-c3ccccc3)cc2)NC(=O)[C@H](C(C)C)NC(=O)[C@H](Cc2c[nH]c3ccccc23)NC(=O)[C@H](CC(=O)O)NC(=O)[C@H](Cc2ccc(OCC(=O)O)cc2)NC(=O)[C@H](Cc2cnc[nH]2)NC(=O)CSC[C@@H](C(=O)N[C@H](C)C(=O)NCCOCCOCC(=O)NCCCCCCCCCCC(=O)O)NC(=O)[C@H](C(C)O)NC(=O)[C@H](C(C)(C)O)NC(=O)[C@H](CC2CCCCC2)NC(=O)[C@H](CCN)NC(=O)[C@@H](CC(C)C)NC(=O)[C@H](C)N(C)C1=O (stereo partly drawn) [Example 2514] ({CH2CO}-HY(Carboxymethyl)DWV[Bip][Ile(3ξ)][NMeA][dL][Dab][Cha][Val(3-OH)][Thr(3ξ)]C[dA][AEEA][Aun]-OH; thioether N-14),16.8
3,CC(=O)NCCCC[C@@H]1NC(=O)[C@H](C(C)O)NC(=O)[C@H](CC2CCCCC2)NC(=O)[C@H](CCN)NC(=O)[C@@H](CC(C)C)NC(=O)[C@H](C)N(C)C(=O)[C@H](CCC(=O)O)NC(=O)[C@H](Cc2ccc(-c3ccccc3)cc2)NC(=O)[C@H](Cc2ccc(C(N)=O)cc2)NC(=O)[C@H](Cc2cccc(C)c2)NC(=O)[C@H](CC(=O)O)NC(=O)[C@H](Cc2ccc(C(=O)O)cc2)NC(=O)[C@H](Cc2ccc(OCC(=O)O)cc2)NC(=O)CSC[C@@H](C(=O)N[C@@H](CCN)C(=O)NCCOCCOCC(=O)NCCCCCCCCCCC(=O)O)NC1=O (stereo partly drawn) [Example 2534] ({CH2CO}-Y(Carboxymethyl)[Phe(4-COOH)]D[Phe(3-Me)][Phe(4-CONH2)][Bip]E[NMeA][dL][Dab][Cha][Thr(3ξ)]K(Ac)C[Dab][AEEA][Aun]-OH; thioether N-14),1.7
